The test system of the experiment is Plasmodium falciparum. Briefly: GSK_TCMDC: Inhibition of Plasmodium falciparum 3D7 in whole erythrocytes, using parasite LDH activity as an index of growth. Particulars: Plasmodium falciparum, 3D7. The format is functional, organism-based.
Take `CCN(CC)CCN(Cc1ccc(-c2ccc(C(F)(F)F)cc2)cc1)C(=O)Cn1c(CCc2c(F)ccc(F)c2F)nc(=O)c2ccccc21`: the XC50 was 238 nM.
Regarding `Cc1ccc(NC(=O)C2CCC2)cc1-c1ccc(C(=O)NCC2CC2)cc1`, the XC50 came to 742 nM.
`COc1ccccc1C1CCN(C2CCC(NC(=O)/C=C/c3ccc(F)c(F)c3)CC2)CC1` (stereo not given) showed an XC50 of 1320 nM.
With `CS(=O)(=O)CCNCc1nc(-c2ccc3c(Nc4ccc(Oc5ccccn5)cc4)ccnc3c2)cs1`, the XC50 is 675 nM.
`COc1ccc(C(=O)CCC(=O)N(Cc2ccc(-c3ccc(CNCc4cccnc4)cn3)cc2)C2CCN(Cc3ccccc3)CC2)cc1F` returned an XC50 of 978 nM.
In turn, `CN1CCN(CCCNCc2ccccc2-c2cccc(CNCc3ccc4c(c3)OCO4)c2)CC1` showed an XC50 of 793 nM.
`O=C(Nc1ccc2c(c1)CCN2C1CCN(Cc2csc3ccccc23)C1)c1ccco1` (stereo not given): the XC50 is 322 nM.
For the compound `CC(C)CCN1CCC(Oc2ccc(NC(=O)c3cccs3)cc2Cl)CC1`, the XC50 stood at 341 nM.
Regarding `c1cc(CNCC2CCCO2)cc(-c2cccc(-c3nc4ccccc4[nH]3)c2)c1` (stereo not given), the XC50 was determined as 859 nM.
For the compound `NC1CCN(Cc2ccc(-c3ccc(-c4nc5ccccc5[nH]4)cc3)cc2)C1` (stereo not given), the XC50 was found to be 147 nM.
To `CCCC(=O)Nc1ccc(OCCCN(Cc2cccc(C(F)(F)F)c2)c2ccc(C#N)c(C(F)(F)F)c2)cc1` belongs 1090 nM; to `c1ccc(Cn2nnnc2-c2cccc(Nc3ccnc4cc(-c5nccs5)ccc34)c2)cc1`, 826 nM; to `CCCSc1nc2c(c(=O)n1CCc1ccccc1)C1(CCCC1)Cc1ccccc1-2`, 702 nM.
Compound `COc1ccccc1C1CCN(C2CCC(NC(=O)/C=C/c3cccc(Cl)c3F)CC2)CC1` (stereo not given) gave an XC50 of 1290 nM.
As for `Cc1[nH]c(C)c(-c2ccc(-c3ccccc3F)nc2)c(=O)c1Cl`, the XC50 is 250 nM.
`COc1ccc(-c2ccc(CNC(=O)c3ccc(Cl)cc3)c(F)c2)cc1CN1CCCN(C)CC1` returned an XC50 of 705 nM.
`CCc1cc(NCc2ccncc2)nc(Nc2ccc(F)cc2)n1` registered an XC50 of 1330 nM.
Compound `CCCN1CCC2(CC1)NC(C(=O)NCCC(C)C)Cc1c2[nH]c2cc(Cl)ccc12` (stereo not given) gave an XC50 of 1380 nM.
To `O=S(=O)(Nc1cccc(CCN2CCC(N3CCCCC3)CC2)c1)c1ccc(Oc2ccccc2)nc1` belongs 928 nM; to `Cc1cc(C(=O)Nc2ccc(C)c(-c3nc(N(C(=O)c4ccc(F)c(C)c4)C4CCNCC4)nc4c3ccc(=O)n4-c3c(F)cccc3F)c2)ccc1F`, 319 nM.
Compound `Cc1ccccc1C1CCN(C2CCC(NC(=O)/C=C/c3ccc(C(F)(F)F)cc3)CC2)CC1` (stereo not given) yielded an XC50 of 1040 nM.
`CCCNCc1ccc(-c2ccc(CN(Cc3cnc(C)cn3)C(=O)c3nn(-c4ccccc4)nc3C)cc2)nc1`: the XC50 is 419 nM.
`Cc1ccc(NC(=O)C(C)Sc2nnc(-c3ccccc3Br)[nH]2)cc1` (stereo not given) returned an XC50 of 1090 nM.
`CCCCCN1CCCN(Cc2cccc(NC(=O)c3ccc(-c4ccccc4)cc3)c2)CC1` displayed an XC50 of 697 nM.
For the compound `CCN1CCN(c2cc(C)c3cc(NC(=O)c4cccc([N+](=O)[O-])c4)ccc3n2)CC1`, the XC50 amounted to 524 nM.
To `Cc1cccc2nc(-c3cccc(-c4cccc(C(=O)NCCc5cn(C)cn5)c4)c3)[nH]c12` belongs 588 nM; to `CN(C(=O)c1nn(-c2ccccn2)c2nccc(-c3cccs3)c12)C1CCCCC1`, 1240 nM.
Compound `COCc1nc(-c2ccccc2)nc(N2CCN(C(=O)NC(C)C)CC2)c1Cc1ccccc1F` registered an XC50 of 1000 nM.
As for `CCN(CCCN1CCCCC1)c1cc(C)nc(Nc2cc(C)ccc2C)n1`, the figure is 664 nM; as for `O=S(=O)(c1ccccc1C(F)(F)F)C1CC2CCC(C1)N2S(=O)(=O)c1ccc(Cl)c(C(F)(F)F)c1` (stereo not given), 706 nM.
As for `COc1cc(NCCCNC(=O)c2cn(Cc3ccccc3)c3ccccc23)nc2ccccc12`, the figure is 868 nM; as for `CN(c1cc(NC(=O)c2ccccc2)ccn1)C1CCN(Cc2cccc(F)c2)CC1`, 738 nM.
In turn, `CN1C(C)(C)CC(NC(=O)c2ccc(-c3nc4cc(Cl)ccc4[nH]3)cc2)CC1(C)C` yielded an XC50 of 991 nM.
`COc1ccc(Nc2nccc(-c3ccc4ccnc(NCCCCN)c4c3)n2)cc1` showed an XC50 of 750 nM.
In the case of `COc1ccc(NS(=O)(=O)c2cc(NC(=O)Cn3ccccc3=O)ccc2N2CCCCC2)cc1`, the XC50 was 695 nM.
With `COc1ccc(Cn2c(Nc3cccc(C(F)(F)F)c3)nc3cc(C(=O)NCCN4CCCC4)cnc32)cc1Cl`, the XC50 came out at 915 nM.
Take `Cc1cc(Oc2cc(NC(=O)c3sc4ncn(Cc5ccccc5F)c(=O)c4c3C)cc([N+](=O)[O-])c2)ccc1Cl`: the XC50 was determined as 1150 nM.
In turn, `Cc1ccc(C2CCN(CCCCNC(=O)c3ccc(-c4ccc(C(F)(F)F)cc4)cc3)CC2)c(O)c1` returned an XC50 of 128 nM.
Compound `COc1c(F)cc(CC(C)NCC(O)c2cccc(Cl)c2)cc1F` (stereo not given) registered an XC50 of 1160 nM.
As to `CN(C)CCCOc1cc(NC(=O)Nc2ccc(-c3ccncc3)c3ccccc23)ccc1I`, the XC50 was determined as 699 nM.
Compound `CCCc1nc2c(N3CC(NC(=O)/C=C/c4ccccc4)C3)cccc2n1C1CC1` had an XC50 of 554 nM.
As to `O=C(/C=C/c1ccc(Cl)c(Cl)c1)N1CCC(CN2CCC(c3c(Br)[nH]c4ccccc34)CC2)CC1`, the XC50 is 289 nM.
Compound `CCn1c(Sc2ccc([N+](=O)[O-])c(C#N)c2)nnc1-c1cccc(Cl)c1` gave an XC50 of 873 nM.
On to `CCOC(=O)c1ccc(NC(=O)Nc2cccc(-c3cccc(-c4nc5ccccc5[nH]4)c3)c2)cc1`, for which the XC50 was determined as 68.7 nM.
As to `O=C(/C=C/c1ccc(Cl)c(Cl)c1)Nc1cccc(CN2CCC(c3c[nH]c4ccc(O)cc34)CC2)c1`, the XC50 was determined as 945 nM.
Turning to `c1ccc(Oc2ccc(Nc3ccnc4cc(-c5ccc(CNCCN6CCOCC6)o5)ccc34)cc2)nc1`, the XC50 was determined as 1440 nM.
Compound `O=C(CCN1CCCCC1)Nc1ccc(Nc2nccc(NCC(O)c3ccccc3)n2)cc1` (stereo not given) had an XC50 of 721 nM.
`Cc1ccc(Cc2c(C)nc3nc(N)nc(N)c3c2C)cc1` returned an XC50 of 243 nM.
With `CC(C)CCNC(=O)C1Cc2c([nH]c3cc(Br)ccc23)C2(CCN(Cc3ccccc3)CC2)N1` (stereo not given), the XC50 turned out to be 792 nM.
As for `Nc1ncnc2cc(-c3cccc(NC(=O)Nc4ccccc4)c3)sc12`, the figure is 705 nM; as for `CCOc1ccc(Br)cc1/C=C/C(=O)Nc1ccc2c(c1)C1CCC2N1C` (stereo not given), 1050 nM.
`O=C(NCc1ccc(F)cc1)Nc1cccc(-c2ccc(-c3nc4ccccc4[nH]3)cc2)c1`: the XC50 was found to be 165 nM.
`CCCCN1CCN(c2cc(NS(=O)(=O)c3ccc(C(=O)Nc4ccc(C(F)(F)F)cc4)cc3)ccc2OC)CC1`: the XC50 is 664 nM.
On to `O=C(Nc1ccsc1)Nc1cccc(-c2ccc(-c3nc4cc(C(F)(F)F)ccc4[nH]3)cc2)c1`, for which the XC50 was found to be 351 nM.
As for `OC1CCCN(Cc2cccc(-c3ccc(-c4nc5cc(C(F)(F)F)ccc5[nH]4)cc3)c2)C1` (stereo not given), the figure is 690 nM.
Turning to `O=S(=O)(Nc1ccc2nccc(N3CCNCC3)c2c1)c1ccc2oc3ccccc3c2c1`, the XC50 worked out at 695 nM.
As for `CC(C)CCn1c(Sc2ccc(C#N)c([N+](=O)[O-])c2)nnc1-c1cccc(Cl)c1`, the figure is 673 nM.
As to `O=C(NC1CCCCC1)c1csc(C2CCCN(C(=O)c3ccc(O)c(-c4cccc(C(F)(F)F)c4)c3)C2)n1` (stereo not given), the XC50 came out at 1670 nM.
Consider `CCOc1cc2ncnc(Nc3cc(Cl)c(Cl)c(Cl)c3)c2cc1OCC`, for which the XC50 amounted to 197 nM.
For `COc1cc(-c2cnc(N)c(-c3nc4ccccc4[nH]3)c2)cc(OC)c1OC`, the XC50 was 191 nM.
`CCn1c(-c2nonc2N)nc2c(-c3cccc(NC(=O)Nc4ccc(Cl)cc4)c3)ncc(OCCCN)c21`: the XC50 was determined as 828 nM.
`CC(C)(C)Oc1ccc(C[C@@H]2NC3(C(=O)N(Cc4ccc(Cl)c(Cl)c4)c4ccccc43)C3C(=O)N(c4ccc(Br)cc4)C(=O)C32)cc1` (stereo not given in full) yielded an XC50 of 1040 nM.
As for `NC(=O)C1CCN(Cc2ccc(-c3cccc(-c4nc5cc(F)ccc5[nH]4)c3)cc2)CC1`, the figure is 879 nM.
`Cc1cc(C(=O)Nc2ccc3c(c2)CCN3C2CCN(Cc3cccc4cc[nH]c34)C2)no1` (stereo not given) returned an XC50 of 189 nM.
`Cc1nc(N)nc(N)c1-c1cc(Cl)c(Cl)c(Cl)c1` came in with an XC50 of 834 nM.
In the case of `COc1ccccc1-c1[nH]c2ccccc2c1CN1CCC(c2c(C)cccc2C)CC1`, the XC50 came to 918 nM.
To `Cc1nn(-c2cccc(Cl)c2)c2c1C(C(=O)c1ccc3c(c1)OCO3)CC(=O)N2` (stereo not given) belongs 371 nM; to `COC(=O)c1noc(C)c1I`, 802 nM; to `CC(=O)Nc1ccc2[nH]cc(C3CCN(CCC4CCN(C(=O)/C=C/c5ccc(Cl)c(Cl)c5)CC4)CC3)c2n1`, 518 nM.
As for `Cc1nnc(NC(=O)c2cn(-c3ccccc3)nc2-c2ccccc2C)o1`, the figure is 565 nM.
The compound `O=S(=O)(Nc1cc2c(cc1O)CCN(C1CCC1)CC2)c1ccc(Oc2ccc(F)cc2)cc1` showed an XC50 of 775 nM.
As for `COc1ccc2ncc(F)c(CCN3CC[C@H](NCc4cc5c(s4)CCCN5)[C@H](O)C3)c2n1`, the XC50 came to 962 nM.
To `CC1CN(c2cnn(Cc3ccc(NC(=O)Nc4ccc(F)cc4[N+](=O)[O-])cc3)c(=O)c2Cl)CC(C)N1` (stereo not given) belongs 808 nM; to `CNCCCNc1ccnc2cc(Cl)ccc12`, 62.4 nM.
`CC(C)c1ccc(OCC(O)CN(CCN2CCOCC2)C(=O)Nc2ccc(Br)cc2)cc1` (stereo not given): the XC50 is 717 nM.
As for `COc1ccc2sc(CNCCCNc3cc(=O)c4ccccc4[nH]3)c(Cl)c2c1`, the XC50 was found to be 1070 nM.
`CC(=O)Nc1ccc(CN2CCC(N(C)c3cc(NC(=O)c4cccs4)ccn3)CC2)cc1`: the XC50 was 892 nM.
As for `COc1ccc(Nc2ccnc3cc(Cl)ccc23)cc1OC`, the figure is 1120 nM.
Turning to `O=C(Nc1cccc(CN2CCCN(Cc3ncc[nH]3)CC2)c1)c1ccc(Cl)c(Cl)c1`, the XC50 worked out at 795 nM.
With `FC(F)(F)c1ccc(CNC2CCN(CC3CCCCC3)CC2)cc1`, the XC50 was 933 nM.
As for `O=C(/C=C/c1ccc(Cl)c(Cl)c1)NCCCCN1CCCN(C(=O)Nc2ccc(Cl)c(Cl)c2)CC1`, the figure is 859 nM; as for `Clc1ccc(-c2cc3c(NCc4ccncc4)nccc3s2)cc1`, 852 nM; as for `COc1ccc(CNCc2ccc(-c3cccc(-c4nc5cc(C(F)(F)F)ccc5[nH]4)c3)cc2)cc1`, 151 nM.
The compound `COc1ccccc1-c1csc(C(=O)NCC2CCN(Cc3ccc(C(C)C)cc3)C2)c1` (stereo not given) displayed an XC50 of 1350 nM.
As for `CCN(CC)CCCNCc1ccc(-c2ccc(C(F)(F)F)cc2)cc1`, the XC50 was determined as 993 nM.

The record behind these values is ChEMBL document CHEMBL1157539, “Thousands of chemical starting points for antimalarial lead identification” (Nature, 2010).
